Laboratory results taken from ChEMBL document CHEMBL1201862, “PubChem BioAssay data set” (2004).
Activity calls are given as the source filed them.

How the values were obtained:
Assay type in all cases: functional
[1] = biological target: Mitogen-activated protein kinase kinase kinase kinase 5 (Homo sapiens, UniProt Q9Y4K4);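 also: measured as one member of a kinome-spanning kinase panel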
[2] = biological target: Activin receptor type-1 (Homo sapiens, UniProt Q04771); experiment: Navigating the Kinome. Panel member name: ACVR1
[3] = biological target: Mitogen-activated protein kinase 14 (Homo sapiens, UniProt Q16539);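 also: part of a kinome-wide panel, MAPK14 entry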
[4] = biological target: LIM domain kinase 1 (Homo sapiens, UniProt P53667); experiment: Navigating the Kinome. Panel member name: LIMK1
Chain of LIM domain kinase 1 (P53667 whole entry, the tested form may be a part): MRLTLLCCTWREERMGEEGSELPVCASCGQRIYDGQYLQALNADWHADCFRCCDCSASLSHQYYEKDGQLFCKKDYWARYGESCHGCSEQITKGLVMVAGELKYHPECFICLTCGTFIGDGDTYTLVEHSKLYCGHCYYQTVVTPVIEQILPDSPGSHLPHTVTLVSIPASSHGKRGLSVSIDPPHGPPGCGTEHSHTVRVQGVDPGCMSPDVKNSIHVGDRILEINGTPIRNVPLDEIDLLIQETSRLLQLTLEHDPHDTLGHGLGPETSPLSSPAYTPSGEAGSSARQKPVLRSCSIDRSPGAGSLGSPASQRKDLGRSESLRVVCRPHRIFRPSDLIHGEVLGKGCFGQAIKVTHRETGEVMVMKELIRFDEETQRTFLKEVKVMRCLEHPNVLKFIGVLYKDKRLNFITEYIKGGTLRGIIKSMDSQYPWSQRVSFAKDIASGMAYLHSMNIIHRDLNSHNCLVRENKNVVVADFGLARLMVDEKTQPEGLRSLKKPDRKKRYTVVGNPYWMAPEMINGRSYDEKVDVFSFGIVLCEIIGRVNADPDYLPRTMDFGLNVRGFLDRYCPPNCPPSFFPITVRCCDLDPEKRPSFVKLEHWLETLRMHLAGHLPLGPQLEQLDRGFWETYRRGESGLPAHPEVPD

[5] = biological target: Serine/threonine-protein kinase 3 (Homo sapiens, UniProt Q13188);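 also: measured as one member of a kinome-wide kinase panel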
[6] = biological target: Dual specificity protein kinase CLK4 (Homo sapiens, UniProt Q9HAZ1)
Chain of Dual specificity protein kinase CLK4 (Q9HAZ1 whole entry): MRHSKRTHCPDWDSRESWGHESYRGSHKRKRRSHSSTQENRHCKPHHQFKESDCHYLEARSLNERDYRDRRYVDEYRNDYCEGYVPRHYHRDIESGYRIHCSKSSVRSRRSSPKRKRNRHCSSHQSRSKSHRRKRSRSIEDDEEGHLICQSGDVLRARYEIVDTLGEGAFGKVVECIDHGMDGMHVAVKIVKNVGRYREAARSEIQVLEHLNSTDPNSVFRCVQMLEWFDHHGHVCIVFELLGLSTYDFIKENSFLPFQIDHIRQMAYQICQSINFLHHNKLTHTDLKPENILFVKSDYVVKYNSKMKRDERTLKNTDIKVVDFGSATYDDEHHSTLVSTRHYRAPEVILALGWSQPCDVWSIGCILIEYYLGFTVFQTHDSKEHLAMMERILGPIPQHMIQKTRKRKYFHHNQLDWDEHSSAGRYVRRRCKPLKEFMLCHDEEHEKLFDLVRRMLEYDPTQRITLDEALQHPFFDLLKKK

[7] = biological target: Calcium/calmodulin-dependent protein kinase type II subunit delta (Homo sapiens, UniProt Q13557)
[8] = biological target: Mitogen-activated protein kinase kinase kinase kinase 2 (Homo sapiens, UniProt Q12851);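 also: measured as one member of a kinome-wide kinase panel, with MAP4K2 as the panel entry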
[9] = biological target: Dual specificity tyrosine-phosphorylation-regulated kinase 1B (Homo sapiens, UniProt Q9Y463); experiment: Navigating the Kinome. Panel member name: DYRK1B
Chain of Dual specificity tyrosine-phosphorylation-regulated kinase 1B (Q9Y463 whole entry): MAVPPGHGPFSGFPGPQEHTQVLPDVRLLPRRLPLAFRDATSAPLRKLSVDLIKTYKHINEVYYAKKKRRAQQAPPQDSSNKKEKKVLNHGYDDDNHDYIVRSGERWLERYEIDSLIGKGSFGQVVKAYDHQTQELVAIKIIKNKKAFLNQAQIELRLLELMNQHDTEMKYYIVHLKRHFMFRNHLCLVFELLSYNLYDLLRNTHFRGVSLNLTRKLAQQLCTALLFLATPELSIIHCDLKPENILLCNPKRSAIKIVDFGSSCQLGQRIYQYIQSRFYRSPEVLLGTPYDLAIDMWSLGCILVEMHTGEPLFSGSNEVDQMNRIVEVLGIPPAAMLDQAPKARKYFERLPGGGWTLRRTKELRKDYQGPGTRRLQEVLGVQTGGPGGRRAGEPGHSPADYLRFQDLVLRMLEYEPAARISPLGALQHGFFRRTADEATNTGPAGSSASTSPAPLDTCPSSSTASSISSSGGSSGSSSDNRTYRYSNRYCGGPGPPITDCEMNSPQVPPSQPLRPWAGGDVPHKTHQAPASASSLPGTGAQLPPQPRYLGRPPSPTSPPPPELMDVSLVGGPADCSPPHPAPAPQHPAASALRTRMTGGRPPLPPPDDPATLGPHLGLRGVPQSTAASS

[10] = biological target: High affinity nerve growth factor receptor (Homo sapiens, UniProt P04629);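 also: NTRK1 tested as one member of a kinome-wide profiling panel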
[11] = biological target: Vascular endothelial growth factor receptor 1 (Homo sapiens, UniProt P17948);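 also: measured within a kinome-wide profiling panel, FLT1 as the panel member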
[12] = biological target: Dual specificity protein kinase CLK2 (Homo sapiens, UniProt P49760)
[13] = biological target: Cyclin-dependent kinase 7 (Homo sapiens, UniProt P50613);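 also: value comes from a kinome-wide kinase profiling panel in which CDK7 is one member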
[14] = biological target: Platelet-derived growth factor receptor alpha (Homo sapiens, UniProt P16234); experiment: Navigating the Kinome. Panel member name: PDGFRA
[15] = biological target: Tyrosine-protein kinase BTK (Homo sapiens, UniProt Q06187)
Chain of Tyrosine-protein kinase BTK (Q06187 whole entry): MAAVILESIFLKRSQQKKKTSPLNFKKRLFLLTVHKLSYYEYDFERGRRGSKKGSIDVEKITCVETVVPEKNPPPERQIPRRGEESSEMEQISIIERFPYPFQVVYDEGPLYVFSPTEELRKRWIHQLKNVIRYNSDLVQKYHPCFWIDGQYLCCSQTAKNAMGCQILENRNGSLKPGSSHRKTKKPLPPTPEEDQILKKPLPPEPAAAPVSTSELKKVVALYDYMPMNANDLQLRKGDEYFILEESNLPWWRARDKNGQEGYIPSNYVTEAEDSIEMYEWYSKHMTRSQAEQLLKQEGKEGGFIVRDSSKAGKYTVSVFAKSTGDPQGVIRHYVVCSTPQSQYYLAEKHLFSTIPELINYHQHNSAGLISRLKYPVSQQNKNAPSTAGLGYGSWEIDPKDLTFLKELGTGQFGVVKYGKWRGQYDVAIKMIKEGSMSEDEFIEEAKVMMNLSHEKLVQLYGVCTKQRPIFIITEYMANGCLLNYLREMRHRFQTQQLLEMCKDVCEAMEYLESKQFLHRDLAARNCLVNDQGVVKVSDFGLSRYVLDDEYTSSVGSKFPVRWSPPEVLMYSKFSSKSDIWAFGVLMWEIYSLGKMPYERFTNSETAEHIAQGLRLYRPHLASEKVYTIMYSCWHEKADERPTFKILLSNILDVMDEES

[16] = biological target: Mitogen-activated protein kinase 9 (Homo sapiens, UniProt P45984);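 also: value from a kinome panel profiling assay, MAPK9 panel entry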
Chain of Mitogen-activated protein kinase 9 (P45984 whole entry): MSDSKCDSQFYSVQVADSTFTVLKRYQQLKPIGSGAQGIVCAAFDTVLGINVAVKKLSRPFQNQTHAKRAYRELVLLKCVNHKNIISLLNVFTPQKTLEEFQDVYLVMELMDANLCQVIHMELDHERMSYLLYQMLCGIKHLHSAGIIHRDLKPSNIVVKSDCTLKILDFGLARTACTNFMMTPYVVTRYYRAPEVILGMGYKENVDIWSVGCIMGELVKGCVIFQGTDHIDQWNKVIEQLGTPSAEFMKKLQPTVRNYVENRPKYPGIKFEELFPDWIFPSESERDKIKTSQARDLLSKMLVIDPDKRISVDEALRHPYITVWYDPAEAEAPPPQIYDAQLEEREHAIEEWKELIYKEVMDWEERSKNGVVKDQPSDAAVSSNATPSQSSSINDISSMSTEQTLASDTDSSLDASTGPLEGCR

[17] = biological target: Protein kinase C theta type (Homo sapiens, UniProt Q04759); experiment: Navigating the Kinome. Panel member name: PRKCQ
[18] = biological target: Casein kinase I isoform alpha (Homo sapiens, UniProt P48729)
[19] = biological target: Serine/threonine-protein kinase PAK 4 (Homo sapiens, UniProt O96013);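 also: value obtained within a kinome profiling panel in which PAK4 was one of the panel members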
Chain of Serine/threonine-protein kinase PAK 4 (O96013 whole entry): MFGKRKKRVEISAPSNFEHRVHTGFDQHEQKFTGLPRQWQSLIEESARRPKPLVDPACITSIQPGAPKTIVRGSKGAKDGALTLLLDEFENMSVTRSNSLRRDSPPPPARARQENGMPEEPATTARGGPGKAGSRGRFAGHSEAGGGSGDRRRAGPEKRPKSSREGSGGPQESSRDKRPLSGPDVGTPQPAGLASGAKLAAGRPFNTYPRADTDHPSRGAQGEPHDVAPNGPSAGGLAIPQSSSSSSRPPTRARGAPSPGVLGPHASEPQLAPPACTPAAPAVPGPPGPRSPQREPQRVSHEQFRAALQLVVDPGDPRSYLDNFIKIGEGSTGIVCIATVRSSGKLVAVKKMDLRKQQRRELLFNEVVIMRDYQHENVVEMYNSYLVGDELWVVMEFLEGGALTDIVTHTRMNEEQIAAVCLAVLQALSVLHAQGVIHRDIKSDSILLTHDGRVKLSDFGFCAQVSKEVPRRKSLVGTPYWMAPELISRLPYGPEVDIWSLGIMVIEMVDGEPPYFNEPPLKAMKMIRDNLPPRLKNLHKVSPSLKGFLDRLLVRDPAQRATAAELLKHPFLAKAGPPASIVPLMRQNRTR

[20] = biological target: Receptor-type tyrosine-protein kinase FLT3 (Homo sapiens, UniProt P36888);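 also: FLT3 was tested as one member of a kinome-wide kinase panel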
[21] = biological target: Serine/threonine-protein kinase 17A (Homo sapiens, UniProt Q9UEE5)
[22] = biological target: T1, Serine/threonine-protein kinase Chk1 (Homo sapiens, UniProt O14757);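 also: measured as one member of a kinome-wide kinase profiling panel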
T1 sequence (O14757 whole entry): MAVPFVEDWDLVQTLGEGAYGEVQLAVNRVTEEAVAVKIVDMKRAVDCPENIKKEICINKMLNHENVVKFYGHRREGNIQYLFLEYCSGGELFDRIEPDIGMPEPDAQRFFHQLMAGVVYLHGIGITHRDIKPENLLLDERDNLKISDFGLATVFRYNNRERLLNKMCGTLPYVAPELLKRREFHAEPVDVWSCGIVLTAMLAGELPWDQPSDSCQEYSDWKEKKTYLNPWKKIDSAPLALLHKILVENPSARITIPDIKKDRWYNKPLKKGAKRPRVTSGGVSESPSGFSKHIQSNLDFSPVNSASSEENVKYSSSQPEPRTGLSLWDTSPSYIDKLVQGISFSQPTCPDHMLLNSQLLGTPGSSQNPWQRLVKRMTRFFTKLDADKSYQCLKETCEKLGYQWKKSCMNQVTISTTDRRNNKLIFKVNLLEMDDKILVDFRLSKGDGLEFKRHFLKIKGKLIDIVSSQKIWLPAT

[23] = biological target: T2, Serine/threonine-protein kinase D3 (Homo sapiens, UniProt O94806);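 also: determined within a kinase panel screen, with PRKCN as the panel member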
T2 sequence (O94806 whole entry): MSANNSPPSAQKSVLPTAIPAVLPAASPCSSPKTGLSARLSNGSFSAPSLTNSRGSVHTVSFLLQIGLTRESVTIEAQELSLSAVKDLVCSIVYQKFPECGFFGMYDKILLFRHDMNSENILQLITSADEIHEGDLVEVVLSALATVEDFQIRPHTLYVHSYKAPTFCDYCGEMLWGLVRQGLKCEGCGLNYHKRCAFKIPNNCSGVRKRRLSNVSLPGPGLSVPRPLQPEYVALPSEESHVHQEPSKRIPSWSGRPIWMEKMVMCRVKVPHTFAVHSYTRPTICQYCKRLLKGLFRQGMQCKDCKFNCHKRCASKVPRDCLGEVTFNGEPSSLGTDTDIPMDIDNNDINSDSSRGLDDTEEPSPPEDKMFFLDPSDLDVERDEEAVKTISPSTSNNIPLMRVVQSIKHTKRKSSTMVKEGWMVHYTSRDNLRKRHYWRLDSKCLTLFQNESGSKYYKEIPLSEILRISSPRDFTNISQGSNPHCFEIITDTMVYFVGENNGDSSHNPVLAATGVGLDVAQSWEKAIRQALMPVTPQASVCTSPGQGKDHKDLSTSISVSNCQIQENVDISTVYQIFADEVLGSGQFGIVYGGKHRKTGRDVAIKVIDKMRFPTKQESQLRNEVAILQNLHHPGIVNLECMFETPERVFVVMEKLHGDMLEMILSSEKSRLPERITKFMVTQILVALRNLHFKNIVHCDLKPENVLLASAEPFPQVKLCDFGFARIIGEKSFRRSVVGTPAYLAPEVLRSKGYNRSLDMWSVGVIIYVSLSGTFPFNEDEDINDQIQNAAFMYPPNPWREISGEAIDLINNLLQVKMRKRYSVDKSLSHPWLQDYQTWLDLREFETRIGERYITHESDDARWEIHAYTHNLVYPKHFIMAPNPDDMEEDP

[24] = biological target: BDNF/NT-3 growth factors receptor (Homo sapiens, UniProt Q16620);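 also: NTRK2 measured as one member of a broad kinome-wide kinase profiling panel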
[25] = biological target: Fibroblast growth factor receptor 1 (Homo sapiens, UniProt P11362)
[26] = biological target: Inhibitor of nuclear factor kappa-B kinase subunit epsilon (Homo sapiens, UniProt Q14164); experiment: Navigating the Kinome. Panel member name: IKBKE
[27] = biological target: Leukocyte tyrosine kinase receptor (Homo sapiens, UniProt P29376); experiment: Navigating the Kinome. Panel member name: LTK
[28] = biological target: Vascular endothelial growth factor receptor 2 (Homo sapiens, UniProt P35968)
Chain of Vascular endothelial growth factor receptor 2 (P35968 whole entry): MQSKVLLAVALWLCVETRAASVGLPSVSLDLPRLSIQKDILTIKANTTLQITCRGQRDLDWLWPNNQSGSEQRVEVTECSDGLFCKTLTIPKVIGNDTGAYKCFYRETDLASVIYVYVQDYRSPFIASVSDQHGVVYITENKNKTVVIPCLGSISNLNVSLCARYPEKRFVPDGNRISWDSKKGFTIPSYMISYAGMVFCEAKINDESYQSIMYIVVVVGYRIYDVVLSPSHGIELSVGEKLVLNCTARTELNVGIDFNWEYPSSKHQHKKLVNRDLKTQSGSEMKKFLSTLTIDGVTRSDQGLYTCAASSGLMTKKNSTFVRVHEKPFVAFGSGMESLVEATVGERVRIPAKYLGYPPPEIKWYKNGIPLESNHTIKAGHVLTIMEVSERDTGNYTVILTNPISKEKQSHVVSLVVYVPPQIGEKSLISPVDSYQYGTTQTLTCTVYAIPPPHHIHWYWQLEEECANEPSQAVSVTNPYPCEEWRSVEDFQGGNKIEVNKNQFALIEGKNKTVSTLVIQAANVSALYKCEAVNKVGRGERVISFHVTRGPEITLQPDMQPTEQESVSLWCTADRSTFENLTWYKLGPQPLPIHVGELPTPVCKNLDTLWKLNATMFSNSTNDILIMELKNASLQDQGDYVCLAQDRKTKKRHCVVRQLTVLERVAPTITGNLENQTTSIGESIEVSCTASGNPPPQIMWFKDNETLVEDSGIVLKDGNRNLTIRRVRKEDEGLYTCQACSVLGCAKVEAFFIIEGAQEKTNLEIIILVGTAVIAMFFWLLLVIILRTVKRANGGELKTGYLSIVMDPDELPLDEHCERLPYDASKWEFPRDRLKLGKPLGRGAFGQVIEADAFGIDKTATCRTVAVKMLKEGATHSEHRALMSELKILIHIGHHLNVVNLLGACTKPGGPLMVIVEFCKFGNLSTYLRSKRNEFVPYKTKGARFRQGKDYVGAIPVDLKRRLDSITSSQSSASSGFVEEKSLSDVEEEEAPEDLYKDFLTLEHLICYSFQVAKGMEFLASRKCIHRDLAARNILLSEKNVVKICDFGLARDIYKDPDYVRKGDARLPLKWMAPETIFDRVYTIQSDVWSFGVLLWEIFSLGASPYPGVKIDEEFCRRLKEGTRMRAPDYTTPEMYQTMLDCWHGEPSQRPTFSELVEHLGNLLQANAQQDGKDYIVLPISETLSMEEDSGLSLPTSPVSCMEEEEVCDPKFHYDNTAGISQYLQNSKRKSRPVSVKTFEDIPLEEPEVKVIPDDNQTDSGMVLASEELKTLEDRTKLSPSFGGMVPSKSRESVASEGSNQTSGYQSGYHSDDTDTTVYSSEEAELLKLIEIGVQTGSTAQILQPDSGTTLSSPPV

| Ki [1] | Ki [2] | Ki [3] | Ki [4] | Ki [5] | Ki [6] | Ki [7] | Ki [8] | Ki [9] | Ki [10] | Ki [11] | Ki [12] | Ki [13] | Ki [14] | Ki [15] | Ki [16] | Ki [17] | Ki [19] | Ki [22] | Ki [23] | SMILES | also measured |
| --- | --- | --- | --- | --- | --- | --- | --- | --- | --- | --- | --- | --- | --- | --- | --- | --- | --- | --- | --- | --- | --- |
| 1.58 µM (active) | > 3.98 µM (inactive) | > 3.98 µM (inactive) | > 3.16 µM (inactive) | > 7.94 µM (inactive) | > 6.31 µM (inactive) | 0.251 µM (active) | > 2 µM (inactive) | > 2.51 µM (inactive) | > 1.58 µM (inactive) | > 2 µM (inactive) | > 6.31 µM (inactive) | > 3.98 µM (inactive) | > 2.51 µM (inactive) | > 3.16 µM (inactive) | > 3.98 µM (inactive) | > 2.51 µM (inactive) | > 3.16 µM (inactive) | > 6.31 µM (inactive) | > 2 µM (inactive) | CS(=O)(=O)N(Cc1ccc2[nH]c(=O)c3cccn3c2c1)C1CC1 | Ki [18]: > 5.01 µM (inactive); Ki [20]: > 2.51 µM (inactive); Ki [21]: > 3.98 µM (inactive); Ki [24]: > 3.98 µM (inactive); Ki [25]: > 3.98 µM (inactive); Ki [26]: > 3.16 µM (inactive); Ki [27]: > 2.51 µM (inactive); Ki [28]: > 5.01 µM (inactive) |
| – | – | – | 0.501 µM (active) | – | 0.501 µM (active) | – | – | 1.26 µM (active) | – | – | – | – | – | > 6.31 µM (inactive) | – | – | > 5.01 µM (inactive) | 2 µM (active) | 3.16 µM (active) | CS(=O)(=O)Nc1ccc(Nc2ccc3[nH]nc(N)c3c2)cc1 | – |
| 0.794 µM (active) | 3.98 µM (active) | > 3.98 µM (inactive) | > 3.16 µM (inactive) | > 3.16 µM (inactive) | 0.01 µM (active) | > 3.16 µM (inactive) | > 2.51 µM (inactive) | 0.00501 µM (active) | > 3.16 µM (inactive) | > 3.98 µM (inactive) | 0.126 µM (active) | 0.2 µM (active) | > 2.51 µM (inactive) | > 6.31 µM (inactive) | 1 µM (active) | 1.58 µM (active) | 3.16 µM (active) | > 3.16 µM (inactive) | > 3.98 µM (inactive) | O=C(Nc1n[nH]c2ccc(-c3cn(Cc4ccccc4)nn3)cc12)c1cc(F)ccc1F | Ki [18]: 1.58 µM (active); Ki [20]: > 2 µM (inactive); Ki [21]: 0.2 µM (active); Ki [24]: > 3.98 µM (inactive); Ki [25]: > 3.98 µM (inactive); Ki [26]: 1.26 µM (active); Ki [27]: > 2.51 µM (inactive); Ki [28]: > 2.51 µM (inactive) |
